Measured values taken from article PMC8698657, “Absorption and Transport Characteristics and Mechanisms of Carnosic Acid” (Biology, 2021).
Where two headings read alike, the source gives them in different places.

Tests used:
[1] = Effect of verapamil, PEG 400 and EDTA on trans-enterocyte transport of CA; format: in vitro ADME, human; details: human, read-out: Papp AP to BL; for Papp A→B at 50 μM / Papp A→B at 75 μM / Papp A→B at 100 μM: Average of 0.5-3.0 h
Description: (§1) CA was dissolved in HBSS solution at 50, 75, and 100 μM. The HBSS solution containing CA combined with 0.5% Tween 80, 5 mmol/L EDTA or 5% PEG 400 was prepared. The cumulative migration (Qr), apparent permeability coefficient (Papp), and the Papp value of bi-direction transport of CA were calculated according to formulas.
(§2) The 0.5 mL HBSS solution containing CA (50, 75, and 100 μM) combined with 100 μmoL/L verapamil, 5% PEG 400, or 5 mmol/L EDTA was added to the AP side of the Transwell plate, and 1.5 mL HBSS solution was added to the BL side. The effect of verapamil, Tween 80, PEG 400, and EDTA on the trans-enterocyte of CA was investigated according to the method described above. The TEER value of each Transwell chamber was measured.
(§3) The cryopreserved Transwell samples were transferred to a 15 mL centrifuge tube, and any remaining liquid was fully washed using 1 mL of 50% methanol solution which was also transferred to the 15 mL centrifuge tube. The mixture was vortexed for 1 min, and 6 mL of ethyl acetate solution was added to the tube and vortexed for another 2 min. The mixture was centrifuged at 6000 rpm/min at 4 °C for 10 min. The supernatant was dried under vacuum, dissolved in 5% phosphoric acid methanol solution, and filtered through a 0.22 μm microporous membrane. The concentration of CA was determined by HPLC as described above.

[2] = test system: Caco-2 cell monolayer; experiment: as above; format: in vitro ADME, human
Description: as §1, §2, §3

[3] = Caco-2, CA 50 μM, + 5 mmoL/L EDTA
[4] = Caco-2, CA 75 μM, + 5 mmoL/L EDTA
[5] = Caco-2, CA 100 μM, + 5% PEG 400
[6] = Caco-2, CA 100 μM, + 5 mmoL/L EDTA
[7] = Caco-2, with verapamil 100 μmol/L, CA 50 μM, + 100 μmoL/L verapamil
[8] = Caco-2, with verapamil 100 μmol/L, CA 75 μM, + 100 μmoL/L verapamil
[9] = Caco-2, with verapamil 100 μmol/L, CA 100 μM, + 100 μmoL/L verapamil
[10] = Caco-2, with verapamil 100 μmoL/L, CA 75 μM, + 100 μmoL/L verapamil

CC(C)c1cc2c(c(O)c1O)[C@@]1(C(=O)O)CCCC(C)(C)[C@@H]1CC2 [CA, Carnosic acid]
Papp A→B at 0.5 h, 50 μM ([1]; Caco-2, CA 50 μM, + 5% PEG 400): 3.76 ± 0.17 ×10⁻⁶ cm/s | Papp A→B at 0.5 h, 50 μM [1, 3]: 0.5 ± 0.01 ×10⁻⁶ cm/s | Papp A→B at 1 h, 50 μM ([1]; Caco-2, CA 50 μM, + 5% PEG 400): 3.96 ± 0.1 ×10⁻⁶ cm/s | Papp A→B at 1 h, 50 μM [1, 3]: 0.24 ± 0.08 ×10⁻⁶ cm/s | Papp A→B at 1.5 h, 50 μM ([1]; Caco-2, CA 50 μM, + 5% PEG 400): 2.35 ± 0.01 ×10⁻⁶ cm/s | Papp A→B at 1.5 h, 50 μM [1, 3]: 0.62 ± 0.02 ×10⁻⁶ cm/s | Papp A→B at 2 h, 50 μM ([1]; Caco-2, CA 50 μM, + 5% PEG 400): 1.86 ± 0.35 ×10⁻⁶ cm/s | Papp A→B at 2 h, 50 μM [1, 3]: 0.92 ×10⁻⁶ cm/s | Papp A→B at 2.5 h, 50 μM ([1]; Caco-2, CA 50 μM, + 5% PEG 400): 1.89 ± 0.04 ×10⁻⁶ cm/s | Papp A→B at 2.5 h, 50 μM [1, 3]: 0.95 ± 0.02 ×10⁻⁶ cm/s | Papp A→B at 3 h, 50 μM ([1]; Caco-2, CA 50 μM, + 5% PEG 400): 2.34 ± 0.01 ×10⁻⁶ cm/s | Papp A→B at 3 h, 50 μM [1, 3]: 1.49 ± 0.02 ×10⁻⁶ cm/s | Papp A→B at 50 μM ([1]; Caco-2, CA 50 μM, + 5% PEG 400): 2.69 ± 0.04 ×10⁻⁶ cm/s | Papp A→B at 50 μM [1, 3]: 0.79 ± 0.03 ×10⁻⁶ cm/s | Papp A→B at 0.5 h, 75 μM ([1]; Caco-2, CA 75 μM, + 5% PEG 400): 3.9 ± 0.1 ×10⁻⁶ cm/s | Papp A→B at 0.5 h, 75 μM [1, 4]: 0.92 ± 0.08 ×10⁻⁶ cm/s | Papp A→B at 1 h, 75 μM ([1]; Caco-2, CA 75 μM, + 5% PEG 400): 2.99 ± 0.09 ×10⁻⁶ cm/s | Papp A→B at 1 h, 75 μM [1, 4]: 1.9 ± 0.08 ×10⁻⁶ cm/s | Papp A→B at 1.5 h, 75 μM ([1]; Caco-2, CA 75 μM, + 5% PEG 400): 2.72 ± 0.46 ×10⁻⁶ cm/s | Papp A→B at 1.5 h, 75 μM [1, 4]: 1.94 ± 0.07 ×10⁻⁶ cm/s | Papp A→B at 2 h, 75 μM ([1]; Caco-2, CA 75 μM, + 5% PEG 400): 2.35 ± 0.1 ×10⁻⁶ cm/s | Papp A→B at 2 h, 75 μM [1, 4]: 2.08 ± 0.03 ×10⁻⁶ cm/s | Papp A→B at 2.5 h, 75 μM ([1]; Caco-2, CA 75 μM, + 5% PEG 400): 1.52 ± 0.06 ×10⁻⁶ cm/s | Papp A→B at 2.5 h, 75 μM [1, 4]: 1.28 ± 0.1 ×10⁻⁶ cm/s | Papp A→B at 3 h, 75 μM ([1]; Caco-2, CA 75 μM, + 5% PEG 400): 1.19 ± 0.06 ×10⁻⁶ cm/s | Papp A→B at 3 h, 75 μM [1, 4]: 0.57 ± 0.01 ×10⁻⁶ cm/s | Papp A→B at 75 μM ([1]; Caco-2, CA 75 μM, + 5% PEG 400): 1.45 ± 0.08 ×10⁻⁶ cm/s | Papp A→B at 75 μM [1, 4]: 1.45 ± 0.05 ×10⁻⁶ cm/s | Papp A→B at 0.5 h, 100 μM [1, 5]: 3.21 ± 0.47 ×10⁻⁶ cm/s | Papp A→B at 0.5 h, 100 μM [1, 6]: 0.38 ×10⁻⁶ cm/s | Papp A→B at 1 h, 100 μM [1, 5]: 3.59 ± 0.1 ×10⁻⁶ cm/s | Papp A→B at 1 h, 100 μM [1, 6]: 2.25 ± 0.09 ×10⁻⁶ cm/s | Papp A→B at 1.5 h, 100 μM [1, 5]: 2.89 ± 0.05 ×10⁻⁶ cm/s | Papp A→B at 1.5 h, 100 μM [1, 6]: 1.96 ± 0.07 ×10⁻⁶ cm/s | Papp A→B at 2 h, 100 μM [1, 5]: 2.25 ± 0.02 ×10⁻⁶ cm/s | Papp A→B at 2 h, 100 μM [1, 6]: 3.01 ± 0.03 ×10⁻⁶ cm/s | Papp A→B at 2.5 h, 100 μM [1, 5]: 2.44 ± 0.01 ×10⁻⁶ cm/s | Papp A→B at 2.5 h, 100 μM [1, 6]: 1.82 ± 0.08 ×10⁻⁶ cm/s | Papp A→B at 3 h, 100 μM [1, 5]: 2.14 ± 0.02 ×10⁻⁶ cm/s | Papp A→B at 3 h, 100 μM [1, 6]: 1.56 ± 0.07 ×10⁻⁶ cm/s | Papp A→B at 100 μM [1, 5]: 2.76 ± 0.07 ×10⁻⁶ cm/s | Papp A→B at 100 μM [1, 6]: 1.83 ± 0.05 ×10⁻⁶ cm/s | Papp A→B at 0.5 h, 50 μM [1, 7]: 1.98 ± 0.06 ×10⁻⁶ cm/s | Papp A→B at 1 h, 50 μM [1, 7]: 1.89 ± 0.09 ×10⁻⁶ cm/s | Papp A→B at 1.5 h, 50 μM [1, 7]: 1.84 ± 0.06 ×10⁻⁶ cm/s | Papp A→B at 2 h, 50 μM [1, 7]: 2.08 ± 0.1 ×10⁻⁶ cm/s | Papp A→B at 2.5 h, 50 μM [1, 7]: 0.95 ± 0.03 ×10⁻⁶ cm/s | Papp A→B at 3 h, 50 μM [1, 7]: 1.37 ± 0.09 ×10⁻⁶ cm/s | Papp A→B at 3 h, 75 μM [1, 8]: 0.69 ± 0.01 ×10⁻⁶ cm/s | Papp A→B at 75 μM [1, 8]: 1.53 ± 0.04 ×10⁻⁶ cm/s | Papp A→B at 0.5 h, 100 μM [1, 9]: 1.26 ± 0.02 ×10⁻⁶ cm/s | Papp A→B at 1 h, 100 μM [1, 9]: 1.7 ± 0.01 ×10⁻⁶ cm/s | Papp A→B at 1.5 h, 100 μM [1, 9]: 2.99 ± 0.03 ×10⁻⁶ cm/s | Papp A→B at 2 h, 100 μM [1, 9]: 1.24 ± 0.02 ×10⁻⁶ cm/s | Papp A→B at 2.5 h, 100 μM [1, 9]: 0.95 ± 0.05 ×10⁻⁶ cm/s | Papp A→B at 3 h, 100 μM [1, 9]: 1.09 ± 0.02 ×10⁻⁶ cm/s | Papp A→B at 100 μM [1, 9]: 1.53 ± 0.07 ×10⁻⁶ cm/s | Papp A→B at 50 μM ([1]; Caco-2, with verapamil 100 μmoL/L, CA 50 μM, + 100 μmoL/L verapamil): 1.5 ± 0.02 ×10⁻⁶ cm/s | Papp A→B at 0.5 h, 75 μM [1, 10]: 1.12 ± 0.01 ×10⁻⁶ cm/s | Papp A→B at 1 h, 75 μM [1, 10]: 1.32 ± 0.01 ×10⁻⁶ cm/s | Papp A→B at 1.5 h, 75 μM [1, 10]: 0.85 ± 0.03 ×10⁻⁶ cm/s | Papp A→B at 2 h, 75 μM [1, 10]: 1.94 ± 0.06 ×10⁻⁶ cm/s | Papp A→B at 2.5 h, 75 μM [1, 10]: 0.87 ± 0.1 ×10⁻⁶ cm/s | increase of Papp (AP to BL) in the presence of EDTA vs control ([2]; 5 mmol/L EDTA): ~ 1.5 fold | active efflux / P-gp substrate status ([2]; from effect of verapamil and PEG 400 on Papp (AP to BL)): could be a substrate of P-gp
